According to publication PMC11031295 (ChemMedChem, 2024):
“Also recorded” adds a separate entry of the source.

Legend:
[1] = target: T1, ERCC1/XPA protein-protein interaction (MBP-ERCC1 central domain / fluorescein-labeled XPA67-80 peptide) (Homo sapiens, UniProt P07992); assay: Fluorescence polarization; format: binding
T1 sequence (P07992 96-214): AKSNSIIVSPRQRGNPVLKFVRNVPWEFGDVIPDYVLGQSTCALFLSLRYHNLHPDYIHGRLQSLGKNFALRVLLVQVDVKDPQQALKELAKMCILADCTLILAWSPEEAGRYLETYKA

[2] = target: T2, 15N-labeled human ERCC1 fragment containing residues 96-214 (Homo sapiens, UniProt P07992); assay: Backbone chemical shift perturbation mapping by NMR; format: binding; conditions: 0.25 mM ERCC1, titration with compound 1, pH 7.5, 28 °C
T2 sequence (P07992 96-214): T1 sequence (P07992 96-214)

[3] = system: ERCC1; conditions: binding pocket on ERCC1; cited from earlier work

## Cc1cc(C)c(C#N)c(SCC(O)c2cccc([N+](=O)[O-])c2)n1 (stereo not drawn) [Compound 1, 2-[2-hydroxy-2-(3-nitrophenyl)ethyl]sulfanyl-4,6-dimethyl-pyridine-3-carbonitrile]
[1]
  EC50: 21 µM
[2]
  binding site on ERCC1 (in words): binds within the same site as the truncated XPA67-80 peptide; also recorded: binds to the same site as the truncated XPA 14-mer; also recorded: binds to the same central domain of ERCC1 as truncated XPA peptides

## 14-mer peptide corresponding to residues 67-80 of XPA: truncated 14-mer peptide corresponding to residues 67-80 of XPA (KIIDTGGGFILEEE; UniProt P23025 67-80, looked up, fragment)
[3]
  binding affinity to ERCC1 (in words): sub-micromolar affinity
